Experimental data published in patent publication US20180280397A1, “RATIONAL COMBINATION THERAPY FOR THE TREATMENT OF CANCER” (Memorial Sloan Kettering Cancer Center, priority 2015, published 2018).
“Also recorded” adds a separate entry of the source. Each block holds one compound with its values, some of them ahead of it.

Experiments:
[1] = system: HER2+ tumors; details: patients with progressive disease after trastuzumab therapy; cited from earlier work
[2] = system: BJAB Burkitt lymphoma cells; experiment: MTS viability assay, DOX followed by PU-H71; type: cell-based; details: Homo sapiens, 24 h
Protocol: BJAB Burkitt lymphoma cells were exposed to serial dilutions of DOX for 24 h prior to addition of 500 nM PU-H71. Viability was measured 24 h later using standard MTS assay. Sextuplicate data points were averaged and normalized against untreated (DOX alone) or PU-H71-treated (DOX followed by PU-H71) controls. Data is presented as mean±SD.

[3] = system: SUDHL4 DLBCL cells; experiment: Cell cycle analysis and caspase-3 activation by flow cytometry; type: cell-based
Protocol: To further establish the potency of a combination of a proteotoxic agent and an Hsp90 inhibitor, in vitro assays were performed on lymphoma cells treated with Doxorubicin (DOX). DOX is a topoisomerase inhibitor that intercalates into DNA to induce DNA damage and oxidative stress. The interaction of DOX and PU-H71 was evaluated using standard criteria for synergy, the median effect/Combination Index (CI) method. A dose-response matrix was used as a means to systematically test multiple ratios of DOX:PU-H71 for interaction in sequential or simultaneous schedules of exposure. […] The effect of each drug and their combination on cell cycle and apoptosis in lymphoma cells with low to medium epichaperome levels, such as the SUDHL4 DLBCL cells was evaluated (FIG. 18c).
SUDHL4 DLBCL cells were exposed to PU-H71 and DOX or combinations in different schedules as indicated. Caspase-3 activation was measured by flow cytometry using PE-conjugated anti-active Caspase-3 antibody (FIG. 18C). Cell cycle analysis was performed in parallel and is shown in the inset at top left of each scatterplot. Frequency of hypodiploid population is indicated.

[4] = system: cancer cell lines; experiment: Cell viability by Annexin V staining in type 1 and type 2 cancer cells; type: cell-based; details: for apoptotic sensitivity, type 1 tumors / apoptotic sensitivity, type 2 tumors: Annexin V staining
Protocol: (FIG. 3c). Cells were treated with 1 μM PU-H71-FITC. At 4 h post treatment, cells were washed twice with FACS buffer. To measure PU-H71-FITC binding in live cells, cells were stained with 7-AAD in FACS buffer at room temperature for 10 min, and analyzed by flow cytometry (BD Biosciences). Cell viability was determined using Annexin v staining. […]

[5] = system: HSP90 in the epichaperome complex; experiment: PU-H71-beads depletion of HSP90 species from cell lysates, isoelectric focusing; type: binding
From the text: The supernatant was applied to native gel separation followed by immunoblotting with HSP90 and other epichaperome complex components (left, example for MDAMB468) or nanopro isoelectric focusing and immunoblotting ([…], shown for all 3 cells). Duplicates of each experimental condition are presented. Data were graphed to indicate the relative binding affinity of PU-H71 to the HSP90 species as expressed in the 3 cell types.

[6] = system: primary breast tumors; experiment: Ex vivo treatment of primary breast cancer specimens; type: cell-based; details: 24 h
Protocol: Primary breast cancer specimens. Patient tissue procurement was authorized through institutionally review board-approved bio-specimen protocol#09-121 at Memorial Sloan Kettering Cancer Centre (New York, N.Y.). Specimens were treated for 24 h with the indicated concentrations of PU-H71. Following treatment, slices were fixed in 4% formalin solution for 1 h then stored in 70% ethanol. For tissue analysis, slices were embedded in paraffin, sectioned, slide-mounted, and stained with haematoxylin and eosin. Tissue slides were assessed blindly by a breast cancer pathologist who gauged the apoptosis present in the tumor as well as any effect to normal tissue.
Primary breast tumor protocol. The ex vivo protocol employed on this study is depicted schematically in FIG. 4. Sample preparation and treatment are detailed in Ex vivo treatment response of primary tumors and/or associated metastases for preclinical and clinical development of therapeutics. Corben A D, Uddin M M, Crawford B, Farooq M, Modi S, Gerecitano J, Chiosis G, Alpaugh M L. J Vis Exp. 2014 Oct 2; (92):e52157.

[7] = system: primary acute myeloid leukemias; experiment: Ex vivo treatment of primary acute myeloid leukemia samples; type: cell-based
Protocol: Primary acute myeloid leukemia. Cryopreserved primary AML samples were obtained with informed consent and Weill Cornell Medical College institutional review board approval, and from the University of Pennsylvania Stem Cell & Xenograft Core Facility.
Epichaperome abundance determined by the PU-FITC flow cytometry assay. Cells were treated with 1 μM PU-H71-FITC. At 4 h post treatment, cells were washed twice with FACS buffer (PBS-0.5% FBS). To measure PU-H71-FITC binding in live cells, cells were stained with 7-AAD in FACS buffer at room temperature for 10 min, and analyzed by using an BD-LSR-II or BD-Canto cytometry (BD Biosciences). Cell viability was determined using Annexin-V staining. At 48 h post 1 μM PUH71 treatment, cells were stained with Annexin-V BD Horizon-V450 (BD Biosciences) and 7-AAD in Annexin-V buffer, and subjected to flow cytometry to measure viability determined by AnnexinV/7AAD double negative gates.

[8] = system: BT20 triple negative breast cancer cells; experiment: Incucyte kinetic growth assay; type: cell-based; details: for effect on cell confluency, agent alone: 2 μM paclitaxel or 5 μM PU-H71; for remaining live cells and regrowth after removal of agents: between 130 h and approximately 230 h
Protocol: MDA-MD-231 and BT20 triple negative breast cancer cells were seeded in tissue culture treated dishes. Once confluent to approximately 50% of the vessel surface area, the cells were treated with medium containing 2 μM paclitaxel, 5 μM PU-H71, vehicle (DMSO), or a combination of 2 μM paclitaxel and 5 μM PU-H71 (together or sequential). Cells were grown in these conditions in an Essen IncuCyte housed in a standard cell culture incubator. Nine images per condition were collected every 2 hours for a total of 316 hours. After 24 hours under the aforementioned treatment conditions, paclitaxel treated cells were treated with medium containing 5 μM PU-H71 or the control vehicle, PU-H71 treated cells were treated with medium containing 2 μM paclitaxel or control vehicle, and the cells treated with vehicle and the combination of PU-H71 with paclitaxel were treated with medium containing control vehicle. All secondary drug additions were added to existing medium containing the original treatment. The existing medium was additionally diluted twice more with medium containing the control vehicle; each dilution occurring 24 hours after the previous. After 96 hours in culture, the medium was aspirated from each well and replaced with cell-appropriate medium with no pharmacological agents. As stated above, cells were monitored for a total of 316 hours (i.e., […] after complete removal of pharmacological agents).

[9] = Safety and body weight monitoring in tumor-bearing mice; type: in vivo
Protocol: Pre-formulated Abraxane® (5 mg/ml) was used.
Five mice were administered the vehicle control.

[10] = system: triple-negative breast cancer mouse models; details: pre-clinical; cited from earlier work
[11] = system: epichaperome; experiment: Induction of epichaperome, native gel of HSP90 complexes in treated cancer cells; type: cell-based; details: cells pretreated with paclitaxel for 1 h then drug washed off
Protocol: Cells were cultured using the procedure described in Example 1. The proteotoxic stressor (e.g., paclitaxel or bortezomib) was added for 6 hours and then the cells were lysed. The homogenate was applied for separation on a gel under native conditions.
For the wash off studies (FIG. 8d), cells were cultured and then treated with paclitaxel (referred to as PAC in figure) for 1-2 hours to mimic in vivo conditions. The paclitaxel was then washed off to determine how long the epichaperome is maintained in vitro.

Structure (SMILES): CO[C@H]1/C=C\C=C(/C)C(=O)NC2=CC(=O)C(NCCN(C)C)=C(C[C@@H](C)C[C@H](OC)[C@H](O)[C@@H](C)/C=C(\C)[C@@H]1OC(N)=O)C2=O [17-DMAG]
clinical response [1]: elicited responses

IC50 ([2]; 500 nM PU-H71 added sequentially 24 h after DOX, viability 24 h later): 75 nM
IC50 ([2]; DOX alone, DOX 24 h, viability measured 24 h later): 400 nM
Structure (SMILES): COc1cccc2c1C(=O)c1c(O)c3c(c(O)c1C2=O)C[C@@](O)(C(=O)CO)C[C@@H]3O[C@H]1C[C@H](N)[C@H](O)[C@H](C)O1 [DOX, Doxorubicin]
effect on cell cycle ([3]; 24 h exposure to doses of DOX below the IC50): loss of S-phase fraction and accumulation in G2/M

Structure (SMILES): CCNC(=O)c1noc(-c2cc(C(C)C)c(O)cc2O)c1-c1ccc(CN2CCOCC2)cc1 [NVP-AUY-922]
apoptotic sensitivity, type 1 tumors ([4]; 48 h): effectively killed
apoptotic sensitivity, type 2 tumors ([4]; 48 h): refractory

Structure (SMILES): CC(C)NCCCn1c(Sc2cc3c(cc2I)OCO3)nc2c(N)ncnc21 [PU-H71, 8-(6-Iodo-benzo[1,3]dioxol-5-ylsulfanyl)-9-(3-isopropylamino-propyl)-9H-purin-6-ylamine]
effect on cell cycle ([3]; 24 h exposure to 1 μM PU-H71): G1/S arrest
relative binding affinity for HSP90 species ([5]; epichaperome / stress HSP90 vs housekeeping, normal cell HSP90): higher affinity for the stress HSP90 species; also recorded: higher affinity and selectivity
amount of epichaperome in the lysates ([5]; increasing amounts of PU-H71 attached to a solid support): dose-dependent reduction
cell death ([4]; cells enriched in the epichaperome vs cells with lower levels, 1 μM, 48 h): more likely to die
sensitivity to killing ([4]; cells with AHA-1 levels reduced by siRNA, 24 h): less amenable to killing
apoptosis / killing of tumors expressing stable multimeric epichaperome forms [6]: most effectively killed; also recorded: readily underwent apoptosis
sensitivity of adjacent benign tissue [6]: insensitive
sensitivity of tumors not enriched in the epichaperome (type 2) [6]: mostly unaffected; also recorded: far less sensitive
sensitivity of non-malignant lymphocytes in the AML samples [7]: insensitive
sensitivity of type 2 tumors [7]: mostly unaffected
killing of leukemias expressing stable multimeric epichaperome forms ([7]; n=40): most effectively killed
effect on cell confluency, agent alone [8]: cytotoxic effect
remaining live cells and regrowth after removal of agents [8]: a few live cells and these cells start to regrow
adverse effects ([9]; Example 13: NCI-H1975, HCC1806 or MDA-MB-231 bearing mice, ip once a week, PU-H71 75 mg/kg, Abraxane 30 mg/kg): No adverse effects were observed
adverse effects ([9]; Example 14: MiaPaca2 bearing mice, Abraxane 30 mpk iv or ip 1x wk, PU-H71 75 mpk ip 1x or 2x wk, 40-day treatment): No adverse effects were observed
adverse effects ([9]; Example 15: HCC1806 bearing mice, Abraxane 30 mpk iv 1x wk, PU-H71 75 mpk ip 1x or 2x wk, 40-day treatment): No adverse effects were observed
single-agent anti-tumor effect [10]: most potent targeted single-agent anti-tumor effect yet reported

Structure (SMILES): CC1(C)CC(=O)c2c(C(F)(F)F)nn(-c3ccc(C(N)=O)c(N[C@H]4CC[C@H](O)CC4)c3)c2C1 [SNX2112]
apoptotic sensitivity, type 1 tumors ([4]; 48 h): effectively killed
apoptotic sensitivity, type 2 tumors ([4]; 48 h): refractory

Structure (SMILES): CC(=O)O[C@H]1C(=O)[C@@]2(C)[C@H]([C@H](OC(=O)c3ccccc3)[C@]3(O)C[C@H](OC(=O)[C@H](O)[C@@H](NC(=O)c4ccccc4)c4ccccc4)C(C)=C1C3(C)C)[C@]1(OC(C)=O)CO[C@@H]1C[C@@H]2O [paclitaxel, reference compound]
time of decrease of epichaperome to endogenous levels [11]: ≤ 24 h
time of peak epichaperome levels [11]: 5 to 7 h
effect on cell confluency, agent alone [8]: cytotoxic effect
remaining live cells and regrowth after removal of agents [8]: a few live cells and these cells start to regrow
